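1) Cells in 96-well plates. 2) Compound, 48 h, 5 concentrations. 3) Linear interpolation between surrounding doses. 4) Unreached endpoint = highest concentration. The concentration for 50% growth inhibition is given as GI50. Definition used: TGI = concentration required for complete inhibition of growth.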
Experiments:
Assay in all cases: growth of human tumour cells (NCI), 48 h
786-0 renal = test system: 786-0 renal
A498 renal = test system: A498 renal
A549 NSCLC = test system: A549 NSCLC
ACHN renal = test system: ACHN renal
BT-549 breast = test system: BT-549 breast
CAKI-1 renal = test system: CAKI-1 renal
CCRF-CEM leukemia = test system: CCRF-CEM leukemia
COLO 205 colon = test system: COLO 205 colon
DU-145 prostate = test system: DU-145 prostate
EKVX NSCLC = test system: EKVX NSCLC
HCC-2998 colon = test system: HCC-2998 colon
HCT-116 colon = test system: HCT-116 colon
HCT-15 colon = test system: HCT-15 colon
HL-60(TB) leukemia = test system: HL-60(TB) leukemia
HOP-62 NSCLC = test system: HOP-62 NSCLC
HOP-92 NSCLC = test system: HOP-92 NSCLC
HS 578T breast = test system: HS 578T breast
HT29 colon = test system: HT29 colon
IGROV1 ovarian = test system: IGROV1 ovarian
K-562 leukemia = test system: K-562 leukemia
KM12 colon = test system: KM12 colon
LOX IMVI melanoma = test system: LOX IMVI melanoma
M14 melanoma = test system: M14 melanoma
MALME-3M melanoma = test system: MALME-3M melanoma
MCF7 breast = test system: MCF7 breast
MDA-MB-231 breast = test system: MDA-MB-231 breast
MDA-MB-435 = test system: MDA-MB-435
MDA-MB-468 breast = test system: MDA-MB-468 breast
MOLT-4 leukemia = test system: MOLT-4 leukemia
NCI-H226 lung = test system: NCI-H226 lung
NCI-H23 lung = test system: NCI-H23 lung
NCI-H460 lung = test system: NCI-H460 lung
NCI-H522 lung = test system: NCI-H522 lung
OVCAR-3 ovarian = test system: OVCAR-3 ovarian
OVCAR-4 ovarian = test system: OVCAR-4 ovarian
OVCAR-5 ovarian = test system: OVCAR-5 ovarian
OVCAR-8 ovarian = test system: OVCAR-8 ovarian
PC-3 prostate = test system: PC-3 prostate
RPMI-8226 leukemia = test system: RPMI-8226 leukemia
RXF 393 renal = test system: RXF 393 renal
SF-268 CNS = test system: SF-268 CNS
SF-295 CNS = test system: SF-295 CNS
SF-539 CNS = test system: SF-539 CNS
SK-MEL-2 melanoma = test system: SK-MEL-2 melanoma
SK-MEL-28 melanoma = test system: SK-MEL-28 melanoma
SK-MEL-5 melanoma = test system: SK-MEL-5 melanoma
SK-OV-3 ovarian = test system: SK-OV-3 ovarian
SN12C renal = test system: SN12C renal
SNB-19 CNS = test system: SNB-19 CNS
SNB-75 CNS = test system: SNB-75 CNS
SR leukemia = test system: SR leukemia
SW-620 colon = test system: SW-620 colon
T-47D breast = test system: T-47D breast
TK-10 renal = test system: TK-10 renal
U251 CNS = test system: U251 CNS
UACC-257 melanoma = test system: UACC-257 melanoma
UACC-62 melanoma = test system: UACC-62 melanoma
UO-31 renal = test system: UO-31 renal

COc1ccc(NC2=C(I)C(=O)C(C)=C(C)C2=O)cc1
GI50 (786-0 renal): 8.56 µM
TGI (786-0 renal): 27.4 µM
GI50 (A498 renal): 24.6 µM
TGI (A498 renal): 68.3 µM
GI50 (A549 NSCLC): 16.9 µM
TGI (A549 NSCLC): 39 µM
GI50 (ACHN renal): 4.61 µM
TGI (ACHN renal): 17.5 µM
GI50 (BT-549 breast): 12.4 µM
TGI (BT-549 breast): 25.8 µM
GI50 (CAKI-1 renal): 3.89 µM
TGI (CAKI-1 renal): 22 µM
GI50 (CCRF-CEM leukemia): 1.36 µM
TGI (CCRF-CEM leukemia): 35.4 µM
GI50 (COLO 205 colon): 14.8 µM
TGI (COLO 205 colon): 28 µM
GI50 (DU-145 prostate): 16.1 µM
TGI (DU-145 prostate): 30.7 µM
GI50 (EKVX NSCLC): 4.25 µM
TGI (EKVX NSCLC): 16.7 µM
GI50 (HCC-2998 colon): 16.7 µM
TGI (HCC-2998 colon): 33.5 µM
GI50 (HCT-116 colon): 2.93 µM
TGI (HCT-116 colon): 10.4 µM
GI50 (HCT-15 colon): 13.5 µM
TGI (HCT-15 colon): 27.9 µM
GI50 (HL-60(TB) leukemia): 0.341 µM
TGI (HL-60(TB) leukemia): 1.54 µM
GI50 (HOP-62 NSCLC): 14.9 µM
TGI (HOP-62 NSCLC): 36.6 µM
GI50 (HOP-92 NSCLC): 7.46 µM
TGI (HOP-92 NSCLC): 26.2 µM
GI50 (HS 578T breast): 14.5 µM
TGI (HS 578T breast): 50.2 µM
GI50 (HT29 colon): 18.2 µM
TGI (HT29 colon): 48.8 µM
GI50 (IGROV1 ovarian): 4.37 µM
TGI (IGROV1 ovarian): 17.3 µM
GI50 (K-562 leukemia): 2.99 µM
TGI (K-562 leukemia): > 100 µM
GI50 (KM12 colon): 6.96 µM
TGI (KM12 colon): 42 µM
GI50 (LOX IMVI melanoma): 2.37 µM
TGI (LOX IMVI melanoma): 8.8 µM
GI50 (M14 melanoma): 15 µM
TGI (M14 melanoma): 28.7 µM
GI50 (MALME-3M melanoma): 11.6 µM
TGI (MALME-3M melanoma): 23.9 µM
GI50 (MCF7 breast): 2.71 µM
TGI (MCF7 breast): 10 µM
GI50 (MDA-MB-231 breast): 2.37 µM
TGI (MDA-MB-231 breast): 8.48 µM
GI50 (MDA-MB-435): 1.82 µM
TGI (MDA-MB-435): 3.37 µM
GI50 (MDA-MB-468 breast): 0.416 µM
TGI (MDA-MB-468 breast): 2.49 µM
GI50 (MOLT-4 leukemia): 0.625 µM
TGI (MOLT-4 leukemia): 32.6 µM
GI50 (NCI-H226 lung): 12.5 µM
TGI (NCI-H226 lung): 28.9 µM
GI50 (NCI-H23 lung): 4.11 µM
TGI (NCI-H23 lung): 17.6 µM
GI50 (NCI-H460 lung): 15.7 µM
TGI (NCI-H460 lung): 32.8 µM
GI50 (NCI-H522 lung): 6.54 µM
TGI (NCI-H522 lung): 21 µM
GI50 (OVCAR-3 ovarian): 2.75 µM
TGI (OVCAR-3 ovarian): 9.45 µM
GI50 (OVCAR-4 ovarian): 3.98 µM
TGI (OVCAR-4 ovarian): 15.2 µM
GI50 (OVCAR-5 ovarian): 11.7 µM
TGI (OVCAR-5 ovarian): 25.6 µM
GI50 (OVCAR-8 ovarian): 2.26 µM
TGI (OVCAR-8 ovarian): 6.54 µM
GI50 (PC-3 prostate): 3.42 µM
TGI (PC-3 prostate): > 100 µM
GI50 (RPMI-8226 leukemia): 3.08 µM
TGI (RPMI-8226 leukemia): 20.2 µM
GI50 (RXF 393 renal): 3.6 µM
TGI (RXF 393 renal): 14.8 µM
GI50 (SF-268 CNS): 12.3 µM
TGI (SF-268 CNS): 55.6 µM
GI50 (SF-295 CNS): 13.9 µM
TGI (SF-295 CNS): 28.4 µM
GI50 (SF-539 CNS): 2.5 µM
TGI (SF-539 CNS): 7.23 µM
GI50 (SK-MEL-2 melanoma): 3.14 µM
TGI (SK-MEL-2 melanoma): 12.4 µM
GI50 (SK-MEL-28 melanoma): 14.3 µM
TGI (SK-MEL-28 melanoma): 28.9 µM
GI50 (SK-MEL-5 melanoma): 4.74 µM
TGI (SK-MEL-5 melanoma): 18.2 µM
GI50 (SK-OV-3 ovarian): 18 µM
TGI (SK-OV-3 ovarian): 62.9 µM
GI50 (SN12C renal): 4.04 µM
TGI (SN12C renal): 15.5 µM
GI50 (SNB-19 CNS): 15.4 µM
TGI (SNB-19 CNS): 34.1 µM
GI50 (SNB-75 CNS): 15.9 µM
TGI (SNB-75 CNS): 35.6 µM
GI50 (SR leukemia): 1.07 µM
TGI (SR leukemia): > 100 µM
GI50 (SW-620 colon): 11.7 µM
TGI (SW-620 colon): 29.2 µM
GI50 (T-47D breast): 1.98 µM
TGI (T-47D breast): 16.3 µM
GI50 (TK-10 renal): 17 µM
TGI (TK-10 renal): 37.2 µM
GI50 (U251 CNS): 11.5 µM
TGI (U251 CNS): 24.7 µM
GI50 (UACC-257 melanoma): 2.42 µM
TGI (UACC-257 melanoma): 8 µM
GI50 (UACC-62 melanoma): 9.68 µM
TGI (UACC-62 melanoma): 23.8 µM
GI50 (UO-31 renal): 6.03 µM
TGI (UO-31 renal): 19.8 µM
